Remaining binding data for one compound are collected here from publication PMC10507085, “Pharmacological inhibition of TBK1/IKKε blunts immunopathology in a murine model of SARS-CoV-2 infection” (Nature Communications, 2023).

Targets include PRKD1 (Homo sapiens, UniProt Q15139); NUAK2 (Homo sapiens, UniProt Q9H093); PLK2 (Homo sapiens, UniProt Q9NYY3); CSNK1A1L (Homo sapiens, UniProt Q8N752); MYO3A (Homo sapiens, UniProt Q8NEV4); WNK4 (Homo sapiens, UniProt Q96J92); CAMK1G (Homo sapiens, UniProt Q96NX5); LATS2 (Homo sapiens, UniProt Q9NRM7); NEK9 (Homo sapiens, UniProt Q8TD19); PTK2B (Homo sapiens, UniProt Q14289); DAPK3 (Homo sapiens, UniProt O43293); MST1R (Homo sapiens, UniProt Q04912); PDGFRA (Homo sapiens, UniProt P16234); FLT4 (Homo sapiens, UniProt P35916); MAPK15 (Homo sapiens, UniProt Q8TD08); MAP2K4 (Homo sapiens, UniProt P45985); MAP3K2 (Homo sapiens, UniProt Q9Y2U5); GRK7 (Homo sapiens, UniProt Q8WTQ7).

Holding throughout (assay): biochemical
Holding throughout (set-up): KINOMEscan competition binding, DNA-tagged kinase against immobilised ligand, qPCR read-out
Common to all, as to conditions: read-out: Percent Control

The next test concerns the target T1, PFCDPK1(P.falciparum) (Plasmodium falciparum, UniProt P62344).
T1 construct: gene CDPK1

Another test addresses T2, MST4 (Homo sapiens, UniProt Q9P289).
T2 construct: gene STK26

Molecules are shown by their SMILES.

PDGFRA, sequence (P16234 whole entry): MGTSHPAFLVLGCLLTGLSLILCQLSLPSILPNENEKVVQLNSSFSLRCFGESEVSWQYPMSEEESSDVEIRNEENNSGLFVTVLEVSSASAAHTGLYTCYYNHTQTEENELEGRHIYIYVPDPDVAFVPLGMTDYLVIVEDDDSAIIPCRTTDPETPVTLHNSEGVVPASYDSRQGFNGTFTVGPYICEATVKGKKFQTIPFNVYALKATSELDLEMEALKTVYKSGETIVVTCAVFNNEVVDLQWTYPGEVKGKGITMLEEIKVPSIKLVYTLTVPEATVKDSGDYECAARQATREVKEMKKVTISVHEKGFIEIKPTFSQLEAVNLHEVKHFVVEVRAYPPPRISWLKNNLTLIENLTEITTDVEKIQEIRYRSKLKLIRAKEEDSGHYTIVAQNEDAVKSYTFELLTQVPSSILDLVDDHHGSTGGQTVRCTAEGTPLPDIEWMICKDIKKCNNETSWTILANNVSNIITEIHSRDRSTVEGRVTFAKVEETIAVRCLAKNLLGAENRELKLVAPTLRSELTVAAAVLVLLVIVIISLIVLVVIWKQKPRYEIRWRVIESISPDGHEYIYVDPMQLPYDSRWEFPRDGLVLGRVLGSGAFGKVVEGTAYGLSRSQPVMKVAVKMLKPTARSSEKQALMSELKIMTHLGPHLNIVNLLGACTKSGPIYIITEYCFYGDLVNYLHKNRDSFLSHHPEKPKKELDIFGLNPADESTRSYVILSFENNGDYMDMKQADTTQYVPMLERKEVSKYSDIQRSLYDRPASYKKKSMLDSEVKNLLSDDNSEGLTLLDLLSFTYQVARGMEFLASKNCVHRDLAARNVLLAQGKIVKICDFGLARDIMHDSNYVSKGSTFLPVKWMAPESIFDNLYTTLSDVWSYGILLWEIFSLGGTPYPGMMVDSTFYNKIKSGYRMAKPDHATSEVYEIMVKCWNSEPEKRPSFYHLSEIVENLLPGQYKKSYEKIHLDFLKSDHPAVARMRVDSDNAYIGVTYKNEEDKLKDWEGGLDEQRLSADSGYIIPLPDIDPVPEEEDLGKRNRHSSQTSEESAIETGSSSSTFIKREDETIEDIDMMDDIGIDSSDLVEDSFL
T1 sequence (P62344 whole entry): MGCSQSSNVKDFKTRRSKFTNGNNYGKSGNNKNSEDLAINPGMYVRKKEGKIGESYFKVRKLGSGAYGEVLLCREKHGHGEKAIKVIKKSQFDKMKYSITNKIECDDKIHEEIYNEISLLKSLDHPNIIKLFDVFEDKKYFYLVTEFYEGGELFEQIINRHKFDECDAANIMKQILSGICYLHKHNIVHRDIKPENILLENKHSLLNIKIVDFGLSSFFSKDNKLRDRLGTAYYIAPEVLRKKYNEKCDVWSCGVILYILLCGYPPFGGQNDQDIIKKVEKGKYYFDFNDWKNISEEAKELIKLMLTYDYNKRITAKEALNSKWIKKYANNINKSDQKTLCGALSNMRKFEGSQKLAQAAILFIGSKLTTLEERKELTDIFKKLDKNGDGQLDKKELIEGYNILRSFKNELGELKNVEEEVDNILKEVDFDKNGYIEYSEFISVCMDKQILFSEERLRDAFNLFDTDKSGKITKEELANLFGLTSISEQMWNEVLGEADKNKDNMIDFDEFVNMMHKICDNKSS
FLT4, sequence (P35916 whole entry): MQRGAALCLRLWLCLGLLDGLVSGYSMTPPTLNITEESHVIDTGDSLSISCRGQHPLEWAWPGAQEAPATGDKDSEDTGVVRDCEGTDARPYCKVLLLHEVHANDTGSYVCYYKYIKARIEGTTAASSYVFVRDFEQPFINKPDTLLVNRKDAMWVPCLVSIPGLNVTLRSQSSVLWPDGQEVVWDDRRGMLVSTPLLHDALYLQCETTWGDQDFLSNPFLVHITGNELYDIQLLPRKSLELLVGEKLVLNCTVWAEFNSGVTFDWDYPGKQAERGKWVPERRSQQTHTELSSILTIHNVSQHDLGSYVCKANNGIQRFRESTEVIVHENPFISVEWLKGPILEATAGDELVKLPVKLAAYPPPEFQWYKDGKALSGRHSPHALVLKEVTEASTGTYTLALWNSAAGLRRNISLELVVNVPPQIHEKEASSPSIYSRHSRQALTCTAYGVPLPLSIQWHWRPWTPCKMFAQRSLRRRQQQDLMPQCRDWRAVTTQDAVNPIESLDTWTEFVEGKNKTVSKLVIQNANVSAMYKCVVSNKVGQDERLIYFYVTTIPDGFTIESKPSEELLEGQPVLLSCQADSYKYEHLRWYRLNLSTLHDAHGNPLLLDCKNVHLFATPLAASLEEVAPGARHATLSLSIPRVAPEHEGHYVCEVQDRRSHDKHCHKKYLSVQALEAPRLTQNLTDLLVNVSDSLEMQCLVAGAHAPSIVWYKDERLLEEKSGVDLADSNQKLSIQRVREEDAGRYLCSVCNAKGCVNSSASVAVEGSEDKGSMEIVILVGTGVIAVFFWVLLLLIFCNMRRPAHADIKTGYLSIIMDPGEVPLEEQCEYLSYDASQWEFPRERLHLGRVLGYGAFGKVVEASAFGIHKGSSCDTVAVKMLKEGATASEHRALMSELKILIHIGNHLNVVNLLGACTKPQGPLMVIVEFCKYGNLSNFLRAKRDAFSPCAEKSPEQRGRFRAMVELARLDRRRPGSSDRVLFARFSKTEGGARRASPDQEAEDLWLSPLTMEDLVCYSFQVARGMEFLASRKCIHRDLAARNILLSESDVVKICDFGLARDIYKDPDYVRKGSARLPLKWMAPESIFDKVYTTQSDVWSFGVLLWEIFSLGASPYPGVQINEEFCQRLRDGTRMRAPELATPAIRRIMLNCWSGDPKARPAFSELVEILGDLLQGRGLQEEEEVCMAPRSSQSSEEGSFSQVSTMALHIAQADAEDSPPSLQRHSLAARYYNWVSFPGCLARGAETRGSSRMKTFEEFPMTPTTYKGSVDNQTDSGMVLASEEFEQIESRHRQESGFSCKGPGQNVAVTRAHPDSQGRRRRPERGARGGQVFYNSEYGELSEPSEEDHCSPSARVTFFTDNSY
LATS2, sequence (Q9NRM7 whole entry): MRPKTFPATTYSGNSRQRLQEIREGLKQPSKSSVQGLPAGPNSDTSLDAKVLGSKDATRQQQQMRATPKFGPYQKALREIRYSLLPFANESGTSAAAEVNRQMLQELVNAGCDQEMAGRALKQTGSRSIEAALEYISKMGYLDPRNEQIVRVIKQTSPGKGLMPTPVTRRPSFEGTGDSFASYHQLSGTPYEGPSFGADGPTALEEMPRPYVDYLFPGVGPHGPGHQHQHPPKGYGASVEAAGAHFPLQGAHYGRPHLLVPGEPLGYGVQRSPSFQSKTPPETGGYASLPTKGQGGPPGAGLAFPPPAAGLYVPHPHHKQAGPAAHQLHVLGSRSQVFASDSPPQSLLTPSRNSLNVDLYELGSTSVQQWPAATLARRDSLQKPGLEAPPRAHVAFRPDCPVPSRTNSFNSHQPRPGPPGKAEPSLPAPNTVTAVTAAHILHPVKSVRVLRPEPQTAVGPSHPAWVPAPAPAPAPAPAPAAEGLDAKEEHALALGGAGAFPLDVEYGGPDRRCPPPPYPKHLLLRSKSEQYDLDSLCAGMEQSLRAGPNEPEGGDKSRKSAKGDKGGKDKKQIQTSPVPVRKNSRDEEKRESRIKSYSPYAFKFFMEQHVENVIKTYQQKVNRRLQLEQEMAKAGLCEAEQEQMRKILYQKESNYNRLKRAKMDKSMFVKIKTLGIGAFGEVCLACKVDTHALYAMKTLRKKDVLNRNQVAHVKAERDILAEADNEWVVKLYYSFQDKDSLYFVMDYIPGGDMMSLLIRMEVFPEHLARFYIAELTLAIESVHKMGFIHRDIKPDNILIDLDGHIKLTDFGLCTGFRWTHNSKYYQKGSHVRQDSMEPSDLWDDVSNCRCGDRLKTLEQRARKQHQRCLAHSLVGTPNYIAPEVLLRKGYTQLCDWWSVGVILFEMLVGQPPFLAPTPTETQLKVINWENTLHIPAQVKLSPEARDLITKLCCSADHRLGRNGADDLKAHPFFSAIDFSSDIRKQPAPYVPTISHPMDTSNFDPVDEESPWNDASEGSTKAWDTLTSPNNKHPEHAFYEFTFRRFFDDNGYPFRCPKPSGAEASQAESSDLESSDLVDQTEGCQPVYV
NUAK2, sequence (Q9H093 whole entry): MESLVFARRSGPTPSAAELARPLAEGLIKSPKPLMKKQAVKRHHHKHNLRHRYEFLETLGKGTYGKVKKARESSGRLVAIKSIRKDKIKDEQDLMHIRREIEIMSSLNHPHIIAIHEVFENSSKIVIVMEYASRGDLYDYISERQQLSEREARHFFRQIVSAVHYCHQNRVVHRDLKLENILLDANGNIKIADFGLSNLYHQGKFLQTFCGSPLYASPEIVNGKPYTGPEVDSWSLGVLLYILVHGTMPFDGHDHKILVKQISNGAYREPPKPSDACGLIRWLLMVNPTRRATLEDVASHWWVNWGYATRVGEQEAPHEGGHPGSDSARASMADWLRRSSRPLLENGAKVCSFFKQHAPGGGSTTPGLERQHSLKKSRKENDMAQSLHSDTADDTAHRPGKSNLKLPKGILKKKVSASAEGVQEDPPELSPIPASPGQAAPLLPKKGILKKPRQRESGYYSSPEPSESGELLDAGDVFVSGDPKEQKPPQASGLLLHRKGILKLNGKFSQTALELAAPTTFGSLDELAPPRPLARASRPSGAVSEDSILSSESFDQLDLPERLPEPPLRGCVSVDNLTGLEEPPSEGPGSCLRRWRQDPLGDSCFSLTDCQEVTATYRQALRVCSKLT
MAP2K4, sequence (P45985 whole entry): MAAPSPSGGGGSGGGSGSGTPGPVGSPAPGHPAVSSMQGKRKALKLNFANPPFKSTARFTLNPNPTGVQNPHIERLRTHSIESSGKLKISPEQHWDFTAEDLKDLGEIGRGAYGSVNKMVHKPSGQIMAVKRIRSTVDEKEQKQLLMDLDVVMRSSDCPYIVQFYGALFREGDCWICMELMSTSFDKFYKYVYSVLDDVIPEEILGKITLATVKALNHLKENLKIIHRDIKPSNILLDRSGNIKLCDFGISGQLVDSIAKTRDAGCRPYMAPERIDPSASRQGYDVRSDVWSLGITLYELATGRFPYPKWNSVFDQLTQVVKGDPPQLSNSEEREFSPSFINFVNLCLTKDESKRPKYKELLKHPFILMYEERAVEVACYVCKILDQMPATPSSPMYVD

As for `Oc1ccc(C2=Cc3ccc(O)cc3OC2)cc1` [compound 1, idronoxil], the remaining binding at 10 µM on PRKD1 turned out to be 96%; on NUAK2, 68%; at PLK2, 80%; on CSNK1A1L it was 96%; on MYO3A it was 91%; on WNK4, 95%. In addition, the remaining binding at 10 µM on CAMK1G amounted to 80%; on LATS2, 55%; at NEK9 it was 100%; at PTK2B, 99%; on DAPK3 it was 49%; on MST1R, 100%. In addition, the remaining binding at 10 µM at PDGFRA was 29%; at FLT4, 100%; at MAPK15, 49%; at MAP2K4, 91%; at PFCDPK1(P.falciparum) it was 80%; at MAP3K2, 83%. Further, the remaining binding at 10 µM came out at 100% on GRK7 and 90% on MST4.
